In PMC3433414, “Oral Administration of the Pimelic Diphenylamide HDAC Inhibitor HDACi 4b Is Unsuitable for Chronic Inhibition of HDAC Activity in the CNS In Vivo” (PLoS ONE, 2012):
In brackets after ≈: the same amount, converted by molar mass. Where two headings read alike, the source gives them in different places. Blank lines part the entries; values can stand above or below the molecule they belong to.

What was measured:
[1] = Solubility in water, formulations and DMSO; format: physicochemical
Description: Thomas and colleagues reported that a solution of 4b at 1 mg/mL was previously obtained using this procedure. […] We therefore prepared both TFA and hydrochloride (HCl) salts of 4b to establish whether they could offer improved solubility. Neither salt form of 4b was particularly soluble in water (<1 mg/ml). […] A study of the stability of the TFA salt also raised another more worrying issue in the use of 2-hydroxypropyl-β-cyclodextrin–complexed 4b salts for potential in vivo studies. […] The 4b. TFA cyclodextrin suspension targeted at 1 mg/ml with heating gave an initial (day 1) measured value of 0.75 mg/ml total 4b, with only 0.27 mg/mL solubilised as quantified in the sample after filtration. The lower than expected initial quantification of 4b was most likely due to the TFA salt rapidly degrading upon heating. Indeed, we always found the presence of the cyclised benzimidazole conversion product, named throughout as product C1, in the salt formulations even at t = 0 after preparation. Furthermore, the suspension was not stable upon standing in the dark with gentle shaking at room temperature, with a further 28% decrease observed in parent (4b) concentration on day 7 analysis, compared to day 1.
As a consequence de novo formulation attempts were made with the stable free base form. After several trials with different excipients, we were able to reach a soluble formulation preparation of 1 mg/ml 4b in 2% N-methyl-2-pyrollidone, 18% polyethylene glycol 400, 10% solutol HS-15 and 70% (1% Lutrol F68 in water), a vehicle which we have previously used without any adverse effects in R6/2 model chronic efficacy trials, but is unlikely to be palatable to mice in drinking water. With this concentration, a single oral gavage dose will result in a maximum of 10 mg/kg dose level (assuming a maximum dose volume of […]), considerably lower than that estimated to have been used by Thomas et al (150 mg/kg day in drinking water). In an attempt to replicate the original dose level as close as possible, it became necessary to formulate the test compound in suspension. We achieved a stable homogeneous suspension of free base 4b up to 100 mg/ml in 0.5% carboxymethylcellulose (medium viscosity) in reverse osmosis deionized (RODI) water. This suspension was used to evaluate the oral pharmacokinetics of 4b in mice. […]

H1 (h) = molecular target: T1, H1 (h) (Homo sapiens, UniProt P35367); experiment: Cerep binding, antagonist radioligand; details: read-out: % inhibition of control specific binding
T1 construct: purchased Cerep (Diversity Profile)
Excerpt: (§1) In addition to the HDAC profiling performed, we also queried 4b for any apparent potential off-target effects, which could complicate any finding of efficacy or adverse events in vivo due to ‘polypharmacy’. This was accomplished by screening against a ‘diversity panel’ of 72 binding and 29 enzyme assays, comprised of roughly equal numbers of selective central and peripheral therapeutically relevant targets (Cerep Diversity Profile). This panel included representative targets from diverse enzyme families, G protein coupled receptors, steroid nuclear receptors, voltage- and ligand-gated ion channels. While not totally inclusive, it is a useful tool for discovery compounds to assess their viability as proof of concept molecules to specifically query a particular target. 4b was initially screened at 10 µM in duplicate. The full set of results is provided as Table S1. […] This clean in vitro profile was considered acceptable to proceed to ADME and pharmacokinetic studies.

Cl‐channel (GABA‐gated) = experiment: Cerep binding, antagonist radioligand; details: 10 μM
Excerpt: as §1

A1 (h) = molecular target: T2, A1 (h) (Homo sapiens, UniProt P30542); experiment: Cerep binding, antagonist radioligand; details: read-out: % inhibition of control specific binding
T2 construct: purchased Cerep (Diversity Profile)
Excerpt: as §1

D3 (h) = molecular target: T3, D3 (h) (Homo sapiens, UniProt P35462); experiment: Cerep binding, antagonist radioligand; details: read-out: % inhibition of control specific binding
T3 construct: purchased Cerep (Diversity Profile)
Excerpt: as §1

5‐HT transporter (h) = molecular target: T4, 5‐HT transporter (h) (Homo sapiens, UniProt P31645); experiment: Cerep binding, antagonist radioligand; details: read-out: % inhibition of control specific binding
T4 construct: purchased Cerep (Diversity Profile)
Excerpt: as §1

[2] = molecular target: T5, choline transporter (CHT1) (h) (Homo sapiens, UniProt Q9GZV3); experiment: Cerep binding, antagonist radioligand; details: read-out: % inhibition of control specific binding
T5 construct: purchased Cerep (Diversity Profile)
Excerpt: as §1

KV channel = experiment: Cerep binding, antagonist radioligand; details: 10 μM
Excerpt: as §1

NK3 (h) = molecular target: T6, NK3 (h) (Homo sapiens, UniProt P29371); experiment: Cerep binding, antagonist radioligand; details: read-out: % inhibition of control specific binding
T6 construct: purchased Cerep (Diversity Profile)
Excerpt: as §1

[3] = Cerep binding, antagonist radioligand; details: 10 μM
Excerpt: as §1

D4.4 (h) = molecular target: T7, D4.4 (h) (Homo sapiens, UniProt P21917); experiment: Cerep binding, antagonist radioligand; details: read-out: % inhibition of control specific binding
T7 construct: purchased Cerep (Diversity Profile)
Excerpt: as §1

I2 = experiment: Cerep binding, antagonist radioligand; details: 10 μM
Excerpt: as §1

dopamine transporter (h) = molecular target: T8, dopamine transporter (h) (Homo sapiens, UniProt Q01959); experiment: Cerep binding, antagonist radioligand; details: read-out: % inhibition of control specific binding
T8 construct: purchased Cerep (Diversity Profile)
Excerpt: as §1

[4] = Hepatic microsomal stability; format: in vitro ADME, mouse; details: for predicted in vivo plasma clearance: from mouse microsomal half-life; for half-life at 1 µM: pooled hepatic microsomes, pH 7.4, mouse
Description: Incubations of test compounds (1 µM initial concentration, n = 2) were carried out with pooled hepatic microsomes (0.25 mg protein/mL in 0.1 M phosphate buffer pH 7.4). NADPH (1 mM) was added to initiate the reactions. The incubations were performed at 37°C. Samples (100 µL) were taken from the incubation at 0, 5, 10, 20 and 40 min and added to 100 µL of acetonitrile containing carbamazepine as analytical internal standard, to terminate the reaction. Samples were centrifuged and the supernatant fractions analysed by LC-MS/MS. The instrument responses (i.e. chromatographic peak heights), normalized by internal standard response were referenced to the zero time-point samples (as 100%) in order to determine the percentage of compound remaining.
Ln plots of the % remaining, for each compound, were used to determine the half-life for the microsomal incubations.
Half-life values were calculated from the relationship. [drawing 2] where λ was the slope of the Ln concentration vs time curve.
The in vitro intrinsic clearance, CLint (µL/min/mg microsomal protein), was calculated using the following formula: [drawing 3]
When quantification was required, calibration standards for parent compound and metabolites were prepared in control hepatic microsomes and extracted and analysed as described for the study samples. Quantification of parent compound or metabolite was by extrapolation from the calibration line.

[5] = mouse, 1 µM, with NADPH, read-out: in vitro half-life in hepatic microsomes

T4 sequence (P31645 whole entry): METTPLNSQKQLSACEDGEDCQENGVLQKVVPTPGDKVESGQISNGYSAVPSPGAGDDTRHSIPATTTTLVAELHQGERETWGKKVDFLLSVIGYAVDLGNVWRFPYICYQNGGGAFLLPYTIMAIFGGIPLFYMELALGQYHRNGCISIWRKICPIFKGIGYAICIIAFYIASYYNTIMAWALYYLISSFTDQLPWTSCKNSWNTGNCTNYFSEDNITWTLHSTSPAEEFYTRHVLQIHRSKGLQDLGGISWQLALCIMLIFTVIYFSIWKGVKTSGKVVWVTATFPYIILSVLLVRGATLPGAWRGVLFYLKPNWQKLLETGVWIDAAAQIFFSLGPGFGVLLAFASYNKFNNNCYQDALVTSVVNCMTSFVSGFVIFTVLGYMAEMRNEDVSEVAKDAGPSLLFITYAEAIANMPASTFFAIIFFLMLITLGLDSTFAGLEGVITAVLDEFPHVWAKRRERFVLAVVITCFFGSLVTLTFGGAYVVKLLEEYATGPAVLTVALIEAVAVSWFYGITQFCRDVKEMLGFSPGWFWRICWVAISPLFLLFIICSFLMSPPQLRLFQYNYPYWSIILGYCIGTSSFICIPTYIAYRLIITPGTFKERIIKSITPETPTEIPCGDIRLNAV
T6 sequence (P29371 whole entry): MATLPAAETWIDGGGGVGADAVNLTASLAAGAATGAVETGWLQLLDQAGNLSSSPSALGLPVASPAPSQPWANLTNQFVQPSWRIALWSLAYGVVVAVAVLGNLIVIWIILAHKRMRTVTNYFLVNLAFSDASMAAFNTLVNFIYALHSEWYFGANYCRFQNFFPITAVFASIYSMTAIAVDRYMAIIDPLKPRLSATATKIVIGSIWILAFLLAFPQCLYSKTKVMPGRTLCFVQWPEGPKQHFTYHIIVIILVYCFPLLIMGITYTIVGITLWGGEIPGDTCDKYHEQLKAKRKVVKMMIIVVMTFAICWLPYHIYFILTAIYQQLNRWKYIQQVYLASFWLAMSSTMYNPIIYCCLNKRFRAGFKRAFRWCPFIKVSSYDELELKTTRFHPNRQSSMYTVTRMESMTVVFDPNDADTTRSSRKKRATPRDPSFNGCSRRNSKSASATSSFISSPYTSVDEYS
T5 sequence (Q9GZV3 whole entry): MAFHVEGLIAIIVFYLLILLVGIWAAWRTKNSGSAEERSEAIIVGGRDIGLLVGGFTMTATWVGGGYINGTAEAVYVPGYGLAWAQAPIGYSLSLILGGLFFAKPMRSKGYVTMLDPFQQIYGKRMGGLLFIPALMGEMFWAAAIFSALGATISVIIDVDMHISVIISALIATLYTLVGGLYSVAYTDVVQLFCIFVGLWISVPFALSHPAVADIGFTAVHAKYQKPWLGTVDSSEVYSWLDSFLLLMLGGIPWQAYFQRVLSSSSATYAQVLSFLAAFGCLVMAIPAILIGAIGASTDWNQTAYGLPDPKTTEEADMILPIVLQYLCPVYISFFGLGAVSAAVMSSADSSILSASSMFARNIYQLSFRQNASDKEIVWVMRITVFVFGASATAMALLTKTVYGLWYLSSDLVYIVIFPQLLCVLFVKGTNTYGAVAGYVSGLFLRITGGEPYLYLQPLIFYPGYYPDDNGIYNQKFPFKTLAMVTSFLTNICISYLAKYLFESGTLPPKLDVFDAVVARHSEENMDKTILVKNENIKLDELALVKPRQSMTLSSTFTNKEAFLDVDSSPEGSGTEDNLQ
T7 sequence (P21917 whole entry): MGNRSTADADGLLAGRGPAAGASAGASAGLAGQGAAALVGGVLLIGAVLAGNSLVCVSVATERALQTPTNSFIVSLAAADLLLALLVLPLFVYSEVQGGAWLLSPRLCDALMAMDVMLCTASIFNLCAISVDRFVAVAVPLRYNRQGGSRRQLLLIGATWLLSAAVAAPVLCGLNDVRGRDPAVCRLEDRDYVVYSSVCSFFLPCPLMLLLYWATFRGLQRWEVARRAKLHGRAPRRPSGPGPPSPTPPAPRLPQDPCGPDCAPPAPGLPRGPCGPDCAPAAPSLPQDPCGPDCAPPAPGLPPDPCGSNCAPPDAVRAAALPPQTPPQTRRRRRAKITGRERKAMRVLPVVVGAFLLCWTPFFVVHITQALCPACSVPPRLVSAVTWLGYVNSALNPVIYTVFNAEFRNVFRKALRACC
T8 sequence (Q01959 whole entry): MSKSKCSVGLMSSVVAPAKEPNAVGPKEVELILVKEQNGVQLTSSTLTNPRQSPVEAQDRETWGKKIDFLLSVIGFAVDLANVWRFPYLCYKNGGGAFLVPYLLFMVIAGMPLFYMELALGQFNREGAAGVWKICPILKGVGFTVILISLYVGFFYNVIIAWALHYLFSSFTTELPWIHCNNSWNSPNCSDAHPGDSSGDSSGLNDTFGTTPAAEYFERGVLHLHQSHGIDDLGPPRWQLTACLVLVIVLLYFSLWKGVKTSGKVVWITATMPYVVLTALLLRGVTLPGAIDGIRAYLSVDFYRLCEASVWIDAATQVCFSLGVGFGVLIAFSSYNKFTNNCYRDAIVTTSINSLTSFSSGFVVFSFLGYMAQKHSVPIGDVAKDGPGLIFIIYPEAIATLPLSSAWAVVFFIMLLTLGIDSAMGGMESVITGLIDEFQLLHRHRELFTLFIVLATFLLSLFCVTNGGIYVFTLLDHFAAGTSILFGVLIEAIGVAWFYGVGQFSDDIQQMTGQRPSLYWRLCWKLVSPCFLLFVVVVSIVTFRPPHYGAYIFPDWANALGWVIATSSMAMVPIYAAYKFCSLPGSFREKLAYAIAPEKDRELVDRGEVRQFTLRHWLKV
T3 sequence (P35462 whole entry): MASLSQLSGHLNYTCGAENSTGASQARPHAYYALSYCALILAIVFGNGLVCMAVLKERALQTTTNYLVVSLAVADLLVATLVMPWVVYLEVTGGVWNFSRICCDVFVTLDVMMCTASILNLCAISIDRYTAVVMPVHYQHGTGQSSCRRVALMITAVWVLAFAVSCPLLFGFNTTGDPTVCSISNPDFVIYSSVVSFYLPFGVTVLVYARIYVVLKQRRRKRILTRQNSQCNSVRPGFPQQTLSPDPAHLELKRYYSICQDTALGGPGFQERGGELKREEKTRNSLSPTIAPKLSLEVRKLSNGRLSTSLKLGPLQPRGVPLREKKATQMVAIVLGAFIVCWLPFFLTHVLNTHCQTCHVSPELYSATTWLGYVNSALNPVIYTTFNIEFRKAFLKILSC
T2 sequence (P30542 whole entry): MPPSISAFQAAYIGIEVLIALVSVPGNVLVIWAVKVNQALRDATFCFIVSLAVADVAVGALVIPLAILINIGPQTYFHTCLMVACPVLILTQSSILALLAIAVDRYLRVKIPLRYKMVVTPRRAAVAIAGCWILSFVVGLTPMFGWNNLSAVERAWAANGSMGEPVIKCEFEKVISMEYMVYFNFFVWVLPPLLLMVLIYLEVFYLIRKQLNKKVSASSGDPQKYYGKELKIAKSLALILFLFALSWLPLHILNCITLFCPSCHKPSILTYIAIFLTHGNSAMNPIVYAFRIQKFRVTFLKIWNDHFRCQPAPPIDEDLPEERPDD
T1 sequence (P35367 whole entry): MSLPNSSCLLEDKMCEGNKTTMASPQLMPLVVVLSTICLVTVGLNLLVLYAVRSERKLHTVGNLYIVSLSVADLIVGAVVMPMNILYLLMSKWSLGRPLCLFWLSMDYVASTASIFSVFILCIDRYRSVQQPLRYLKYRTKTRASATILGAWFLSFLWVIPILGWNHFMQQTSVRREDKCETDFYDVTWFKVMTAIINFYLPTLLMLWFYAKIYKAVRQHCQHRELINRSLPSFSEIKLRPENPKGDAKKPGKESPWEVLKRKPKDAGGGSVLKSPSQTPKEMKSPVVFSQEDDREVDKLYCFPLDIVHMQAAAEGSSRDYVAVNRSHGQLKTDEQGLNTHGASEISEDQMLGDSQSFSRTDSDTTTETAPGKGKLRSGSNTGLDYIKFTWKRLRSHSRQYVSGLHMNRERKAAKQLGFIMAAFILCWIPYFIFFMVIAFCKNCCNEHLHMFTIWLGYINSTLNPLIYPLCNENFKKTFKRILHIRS

SMILES: Nc1ccccc1NC(=O)CCCCCC(=O)Nc1ccccc1 [Compound 4b]
solubility ([1]; NMP/PEG400/Solutol HS-15/Lutrol F68 aqueous vehicle, aqueous with cosolvent or surfactant or cyclodextrin, free base, 2% N-methyl-2-pyrollidone, 18% polyethylene glycol 400, 10% solutol HS-15, 70% (1% Lutrol F68 in water), read-out: soluble formulation concentration): 1000 µg/mL (≈ 3.07 mM)
4b dissolved (filtrate of suspension) ([1]; free base, 2-hydroxypropyl-β-cyclodextrin 1∶5 molar ratio, target 1 mg/mL): 0.1 mg/mL
solubility in water ([1]; neutral pH, free base): highly insoluble
solubility in DMSO ([1]; prepared at 1 mg/ml): soluble
inhibition at 10 µM (H1 (h)): 10%
% inhibition of control specific binding (Cl‐channel (GABA‐gated)): 0%
inhibition at 10 µM (A1 (h)): 7%
inhibition at 10 µM (D3 (h)): 10%
inhibition at 10 µM (5‐HT transporter (h)): 5%
inhibition at 10 µM [2]: 14%
% inhibition of control specific binding (KV channel): 2%
inhibition at 10 µM (NK3 (h)): 0%
% inhibition of control specific binding [3]: 0%
inhibition at 10 µM (D4.4 (h)): 13%
% inhibition of control specific binding (I2): 5%
inhibition at 10 µM (dopamine transporter (h)): 2%
parent remaining ([4]; after 40 min incubation with mouse hepatic microsomes): 16%
predicted in vivo plasma clearance [4]: 43.3 mL/min/kg
predicted clearance as share of liver plasma flow ([4]; mouse): approximately 87%
half-life at 1 µM [4, 5]: ~20 min

solubility in aqueous media [1]: readily soluble
inhibition at 10 µM (H1 (h); 10 μM): 45%
% inhibition of control specific binding (Cl‐channel (GABA‐gated)): 0%
inhibition at 10 µM (A1 (h); 10 μM): 9%
inhibition at 10 µM (D3 (h); 10 μM): 11%
inhibition at 10 µM (5‐HT transporter (h); 10 μM): 5%
inhibition at 10 µM ([2]; 10 μM): 40%
% inhibition of control specific binding (KV channel): 3%
inhibition at 10 µM (NK3 (h); 10 μM): 4%
% inhibition of control specific binding [3]: 13%
inhibition at 10 µM (D4.4 (h); 10 μM): 31%
% inhibition of control specific binding (I2): 73%
inhibition at 10 µM (dopamine transporter (h); 10 μM): 23%
concentration of C1 in incubations with 4b ([4]; all incubations with 4b, below the limit of quantification): < 100 nM
predicted in vivo plasma clearance [4]: > 48.2 mL/min/kg
half-life at 1 µM [4, 5]: < 5 min
half-life at 1 µM ([4]; mouse, without NADPH, read-out: in vitro half-life in liver microsomes): 7 min
SMILES: O=C(CCCCCc1nc2ccccc2[nH]1)Nc1ccccc1 [Compound C1, 6-(1-H-benzo[d]imidazol-2-yl)-N-phenylhexanamide]
